According to patent US20190125701A1 (priority 2016, published 2019):
Entries after “also recorded” stand apart in the source; their conditions may differ.

What was measured:
[1] = tested on: mCMV; conditions: for antiviral activity after drug removal: 24 hrs pre-treatment, compounds removed before virus inoculation; for effect on mCMV infection: cells pre-treated with drug prior to mCMV inoculation; for CMV inhibition with delayed drug addition: compounds added 2 to 12 hours after virus inoculation; for number of infected cells: drug at low concentration (100 μM) present 0-48 hpi, NIH/3T3, MOI 0.1
[2] = tested on: mCMV; experiment: Plaque size assay; conditions: varying drug concentrations, measured 5 dpi
[3] = tested on: Vesicular Stomatitis Virus; format: cell-based, VSV
[4] = tested on: mCMV; experiment: Virucidal activity assay on free virions; conditions: 100 μM with undiluted mCMV for 2 hours at 4° C. or 37° C., then diluted to 10 nM
[5] = tested on: mCMV; experiment: Ethidium homodimer (EthD-1) cytotoxicity assay of mCMV-infected NIH/3T3 cells; conditions: NIH/3T3, 24 hrs pre-treatment, MOI 0.4, 72 hpi
[6] = cited from earlier work
[7] = tested on: mCMV; format: in vivo, mouse; conditions: for parameters of somatic development: body and tail length, eyelid opening, fur maturation; for CMV load in liver and lungs: treated PND 1 to 10, plaque assay at PND 12
[8] = tested on: Sindbis virus (SIN); format: cell-based
[9] = tested on: hCMV; experiment: Quantification of hCMV-GFP infection in normal human dermal fibroblasts and U-373 glioblastoma cells; conditions: pre-treatment prior to hCMV-GFP inoculation
[10] = tested on: CMV IE1/2 promoter; conditions: NIH/3T3, VPD 1 mM for 24 hours, plasmid transfection
Description: To investigate the effects on the immediate early phase of viral replication, NIH/3T3 cells exposed to VPD (1 mM) for 24 hours, were transfected with a CMV promoter (IE1/IE2)-driven reporter plasmid (pCMV-tdTomato) expressing the red fluorescent protein tdTomato.

[11] = tested on: mCMV; experiment: Viral binding and fusion experiments (4° C./37° C. shift); conditions: 100 μM, NIH/3T3, MOI 0.1, infectivity at 48 hpi
[12] = tested on: mCMV; experiment: Viral yield reduction assay after short drug exposure; conditions: 100 μM for 2 hrs at viral challenge, supernatants at 72 hpi
[13] = tested on: mCMV; experiment: Three-chamber test of sociability and social novelty; format: in vivo, mouse; conditions: 5 weeks of age
Description: Sociability and preference for social novelty were investigated at 5 weeks of age in a three-compartment apparatus (Yang, et al., 2011, Curr. Protoc. Neurosci. Chapter 8:Unit 8.26). Initially, test and control animals were allowed to explore the apparatus freely for a 10-min period (habituation). For the social approach paradigm, an unfamiliar conspecific (same sex, similar age and weight) animal was placed into one of the side compartments and restrained by a small wire object (‘social cage’). The compartment on the other side contained an empty wire object (‘empty cage’). The test subject was then released into the center compartment and allowed to explore the three-compartment apparatus freely for 10 min. Behavior was videotaped and assessed for the time(s) that the test subject spent in the three compartments and in close proximity to the social and empty cages. For the social-novelty paradigm, another unfamiliar conspecific animal was placed in the previously empty wire object (‘novel cage’). The behavior of the test mouse was recorded for 10 min and assessed for the time spent exploring the known and novel conspecifics.

[14] = tested on: mCMV; experiment: Challenging beam traversal test; format: in vivo, mouse; conditions: P28-P30
[15] = tested on: Vesicular Stomatitis Virus; conditions: Ornaghi, et al., 2016; cited from earlier work
[16] = tested on: mCMV; conditions: P2 to P14
[17] = tested on: hCMV; experiment: hCMV attachment and internalization in human fetal astrocytes by qPCR; conditions: 100 μM
[18] = tested on: mCMV; experiment: Vertical pole test; format: in vivo, mouse; conditions: P28-P30; 3 out of 20 infected untreated failed
Description: Briefly, mice were individually placed head-downward at the top of a vertical rough-surfaced pole (diameter, 8 mm; height, 55 cm) and allowed to descend in a round of habituation. Then, mice were placed head-upward at the top of the pole. The time required for the animal to descend to the floor was recorded as the locomotor activity time (TLA), with a maximum duration of 120 seconds. If a mouse fell, was unable to turn downward or was unable to climb down, a default locomotor activity time value was recorded as 120 seconds. Each mouse was given three trials with a 30 second-recovery period between trials.

[19] = tested on: mCMV; experiment: Exploratory activity in adapted small open field; format: in vivo, mouse; conditions: P30-40, 3-min session
[20] = tested on: hCMV; experiment: hCMV virus yield reduction assay in human fetal astrocytes; format: cell-based, human CMV
Description: In the virus yield reduction assay, after viral adsorption, cells were washed twice with PBS and replenished with fresh medium containing the compounds to be tested. At 72 hpi medium was collected and titered by plaque assay using HDF monolayers to assess the drug-mediated inhibition of virus replication in human fetal brain astrocytes.

[21] = tested on: mCMV; experiment: Hindlimb clasping test; conditions: P28-P30
[22] = tested on: hCMV; experiment: hCMV infectivity assay in human fetal astrocytes; conditions: 100 μM, 1 h pre-treatment, MOI 0.1, 48 hpi

| Compound | CMV plaque size [2] | virucidal activity on virions [4] | antiviral activity after drug removal [1] | effect on mCMV infection [1] | CMV inhibition with delayed drug addition [1] | number of infected cells [1] [%] | parameters of somatic development [7] | CMV load in liver and lungs [7] | effect on human CMV infection [9] | CMV binding to cells [11] | virus production [12] | other results |
| --- | --- | --- | --- | --- | --- | --- | --- | --- | --- | --- | --- | --- |
| ivermectin |  |  |  |  |  |  |  |  |  |  |  | CMV infection compared to control ([1]; ivermectin used at 1 μM, CMV type not stated): 99%±9% |
| CCCC(C(N)=O)C(C)CC (stereo not shown) [SPD, 3-methyl-2-propylpentanamide] | slightly more effective than either valpromide or valnoctamide; also recorded: reduced |  |  |  |  |  |  |  |  |  |  |  |
| CCC(C)C(C(N)=O)C(C)C (stereo not shown) [SID, 2-isopropyl-3-methylpentanamide] | reduced |  |  |  |  |  |  |  |  |  |  |  |
| CCCC(CCC)C(N)=O [VPD, 2-propylpentanamide] | reduced | No direct inactivation of virions | loss of antiviral activity | robust dose-dependent inhibitory effect | no inhibition | 50 | markedly improved | markedly decreased | inhibited human CMV infection | inhibit CMV binding to cells | significantly decreases virus production | VSV infection compared to control [3]: 101%±5%; viral-mediated cell death / cell survival [5]: increased cell survival; fraction metabolized to VPA ([6]; humans): > 80%; SIN infection compared to control [8]: 107%±3%; number of red (tdTomato) cells compared to control [10]: 96%±4% |
| CCC(C)C(CC)C(N)=O (stereo not shown) [VCD, 2-ethyl-3-methylpentanamide] | reduced | No direct inactivation of virions | loss of antiviral activity | inhibited | no inhibition | 50 | markedly improved | markedly decreased | inhibited | inhibit CMV binding to cells | significantly decreases virus production | preference for social novelty [13]: restored social novelty responses; beam traversal time and number of slips [14]: significantly improved the coordination and balance; antiviral effect on vesicular stomatitis virus [15]: no antiviral effect; acquisition of neurological milestones in infected pups [16]: timely acquisition of neurological milestones; decrease of virus bound to the cell surface versus control ([17]; 4° C.): 60%; CMV fusion/internalization ([17]; 37° C.): did not appear to block CMV fusion/internalization; mice failing the vertical pole test [18]: no VCD-treated mice or uninfected controls failed; conversion to corresponding free acid (valnoctic acid) ([6]; in vivo): little conversion; rearing and nose-poking events [19]: Normal levels of exploratory activity were restored; reduction in viral titer ([20]; 100 μM VCD versus vehicle): approximately 100 fold; viral titer ([20]; 100 μM VCD, MOI 0.1, vehicle 4.92×10^5±5.84×10^4): 6.31×10^3±3.06×10^3 PFU/ml; hindlimb clasping response [21]: completely reversed this altered behavior; hCMV infectivity (GFP-positive cells) [22]: substantially decreased hCMV infectivity |
